Assays:
lipoamide = compound: NC(=O)CCCCC1CCSS1 [lipoamide]; assay: thermal stability z-score vs DMSO; higher = more thermally stabilized by treatment; settings: HeLa, lipoamide concentration 100 µM
Procedure: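 Cellular thermal proteome profiling in HeLa cells. Cells were treated with 100 µM lipoamide for 1 h, with or without 1 mM arsenate for a further 1 h, then heated to ten temperatures (37-66.3 °C), and soluble protein was quantified by TMT mass spectrometry relative to 0.1% DMSO controls. The thermal stability score (sum of log2 fold changes minus the abundance score) was transformed to a z-score; mean of n = 3 experiments.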

potassium arsenate = compound: O=[As]([O-])(O)O.[K+] [potassium arsenate]; assay: as above; settings: HeLa; arsenate concentration 1 mM
Procedure: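 Cellular thermal proteome profiling in HeLa cells treated with 1 mM arsenate for 1 h (DMSO pretreatment), heated to ten temperatures (37-66.3 °C). Soluble protein was quantified by TMT mass spectrometry relative to DMSO controls; the thermal stability score was transformed to a z-score; mean of n = 3 experiments.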

[1] = arsenate co-treatment: 1 mM arsenate 1 h
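Also: each temperature applied for 3 min, abundance score taken as mean log2 fold change at the two lowest temperatures, z-score obtained by mean subtraction and division by SD.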

Chain of UniProt P50454 (P50454 whole entry): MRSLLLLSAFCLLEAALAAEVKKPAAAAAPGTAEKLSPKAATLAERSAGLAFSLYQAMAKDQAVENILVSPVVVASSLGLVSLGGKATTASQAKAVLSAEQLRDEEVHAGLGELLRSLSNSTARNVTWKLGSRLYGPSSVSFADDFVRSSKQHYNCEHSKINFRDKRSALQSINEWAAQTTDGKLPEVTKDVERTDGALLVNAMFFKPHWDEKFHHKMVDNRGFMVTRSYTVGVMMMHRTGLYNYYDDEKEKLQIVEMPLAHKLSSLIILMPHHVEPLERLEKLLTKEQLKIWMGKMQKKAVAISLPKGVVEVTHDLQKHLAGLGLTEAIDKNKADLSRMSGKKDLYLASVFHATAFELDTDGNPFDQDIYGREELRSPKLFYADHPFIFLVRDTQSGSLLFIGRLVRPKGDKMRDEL
Chain of UniProt Q9NUL7 (Q9NUL7 whole entry): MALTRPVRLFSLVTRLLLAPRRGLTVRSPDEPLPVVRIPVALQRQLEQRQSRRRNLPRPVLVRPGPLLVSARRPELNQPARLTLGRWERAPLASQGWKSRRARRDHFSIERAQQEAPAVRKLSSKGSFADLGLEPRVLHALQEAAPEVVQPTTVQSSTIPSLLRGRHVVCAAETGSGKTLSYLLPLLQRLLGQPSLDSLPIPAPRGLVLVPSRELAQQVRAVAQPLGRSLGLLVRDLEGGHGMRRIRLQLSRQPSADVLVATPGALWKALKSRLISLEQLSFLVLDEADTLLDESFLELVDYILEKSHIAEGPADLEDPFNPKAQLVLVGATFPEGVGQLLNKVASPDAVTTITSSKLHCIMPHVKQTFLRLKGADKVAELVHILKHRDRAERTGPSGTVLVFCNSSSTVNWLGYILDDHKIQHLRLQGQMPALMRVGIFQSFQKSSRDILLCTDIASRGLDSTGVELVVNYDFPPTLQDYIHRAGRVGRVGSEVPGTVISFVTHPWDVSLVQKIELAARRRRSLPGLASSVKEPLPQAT
Chain of UniProt Q9ULK4 (Q9ULK4 whole entry): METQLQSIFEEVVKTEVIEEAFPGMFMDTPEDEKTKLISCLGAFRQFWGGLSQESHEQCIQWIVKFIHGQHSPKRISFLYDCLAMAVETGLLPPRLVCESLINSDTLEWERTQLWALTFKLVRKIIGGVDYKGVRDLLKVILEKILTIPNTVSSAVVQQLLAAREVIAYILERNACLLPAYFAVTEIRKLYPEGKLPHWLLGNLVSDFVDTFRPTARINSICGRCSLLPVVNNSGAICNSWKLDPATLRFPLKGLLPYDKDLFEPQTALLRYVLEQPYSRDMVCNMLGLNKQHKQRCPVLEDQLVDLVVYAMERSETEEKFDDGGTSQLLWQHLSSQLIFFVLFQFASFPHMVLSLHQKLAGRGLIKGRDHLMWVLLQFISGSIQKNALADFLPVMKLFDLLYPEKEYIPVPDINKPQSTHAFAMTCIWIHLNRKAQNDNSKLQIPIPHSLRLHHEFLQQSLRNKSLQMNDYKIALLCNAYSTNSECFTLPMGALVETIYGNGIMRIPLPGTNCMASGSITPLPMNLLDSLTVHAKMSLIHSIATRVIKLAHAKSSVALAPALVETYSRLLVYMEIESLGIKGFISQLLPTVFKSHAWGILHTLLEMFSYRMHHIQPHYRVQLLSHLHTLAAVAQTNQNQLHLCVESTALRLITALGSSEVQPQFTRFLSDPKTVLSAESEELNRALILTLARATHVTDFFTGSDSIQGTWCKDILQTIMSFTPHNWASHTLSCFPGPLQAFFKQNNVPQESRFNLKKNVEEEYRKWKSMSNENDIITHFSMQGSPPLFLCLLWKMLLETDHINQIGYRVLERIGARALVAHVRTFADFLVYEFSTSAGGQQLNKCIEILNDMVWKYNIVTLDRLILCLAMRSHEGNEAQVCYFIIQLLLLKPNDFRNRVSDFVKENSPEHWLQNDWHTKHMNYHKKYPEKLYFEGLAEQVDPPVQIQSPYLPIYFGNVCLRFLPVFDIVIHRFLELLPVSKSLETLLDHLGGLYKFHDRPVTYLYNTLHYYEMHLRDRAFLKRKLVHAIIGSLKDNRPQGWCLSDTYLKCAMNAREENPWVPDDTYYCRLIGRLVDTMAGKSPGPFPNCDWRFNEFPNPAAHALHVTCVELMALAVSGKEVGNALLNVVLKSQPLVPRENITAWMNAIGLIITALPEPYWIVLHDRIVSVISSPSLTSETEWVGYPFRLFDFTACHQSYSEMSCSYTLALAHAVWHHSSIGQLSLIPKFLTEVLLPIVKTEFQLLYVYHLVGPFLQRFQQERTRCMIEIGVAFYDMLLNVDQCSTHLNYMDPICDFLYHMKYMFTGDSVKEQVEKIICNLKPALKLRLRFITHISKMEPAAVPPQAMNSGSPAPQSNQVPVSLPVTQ
Chain of UniProt Q9P2E3 (Q9P2E3 whole entry): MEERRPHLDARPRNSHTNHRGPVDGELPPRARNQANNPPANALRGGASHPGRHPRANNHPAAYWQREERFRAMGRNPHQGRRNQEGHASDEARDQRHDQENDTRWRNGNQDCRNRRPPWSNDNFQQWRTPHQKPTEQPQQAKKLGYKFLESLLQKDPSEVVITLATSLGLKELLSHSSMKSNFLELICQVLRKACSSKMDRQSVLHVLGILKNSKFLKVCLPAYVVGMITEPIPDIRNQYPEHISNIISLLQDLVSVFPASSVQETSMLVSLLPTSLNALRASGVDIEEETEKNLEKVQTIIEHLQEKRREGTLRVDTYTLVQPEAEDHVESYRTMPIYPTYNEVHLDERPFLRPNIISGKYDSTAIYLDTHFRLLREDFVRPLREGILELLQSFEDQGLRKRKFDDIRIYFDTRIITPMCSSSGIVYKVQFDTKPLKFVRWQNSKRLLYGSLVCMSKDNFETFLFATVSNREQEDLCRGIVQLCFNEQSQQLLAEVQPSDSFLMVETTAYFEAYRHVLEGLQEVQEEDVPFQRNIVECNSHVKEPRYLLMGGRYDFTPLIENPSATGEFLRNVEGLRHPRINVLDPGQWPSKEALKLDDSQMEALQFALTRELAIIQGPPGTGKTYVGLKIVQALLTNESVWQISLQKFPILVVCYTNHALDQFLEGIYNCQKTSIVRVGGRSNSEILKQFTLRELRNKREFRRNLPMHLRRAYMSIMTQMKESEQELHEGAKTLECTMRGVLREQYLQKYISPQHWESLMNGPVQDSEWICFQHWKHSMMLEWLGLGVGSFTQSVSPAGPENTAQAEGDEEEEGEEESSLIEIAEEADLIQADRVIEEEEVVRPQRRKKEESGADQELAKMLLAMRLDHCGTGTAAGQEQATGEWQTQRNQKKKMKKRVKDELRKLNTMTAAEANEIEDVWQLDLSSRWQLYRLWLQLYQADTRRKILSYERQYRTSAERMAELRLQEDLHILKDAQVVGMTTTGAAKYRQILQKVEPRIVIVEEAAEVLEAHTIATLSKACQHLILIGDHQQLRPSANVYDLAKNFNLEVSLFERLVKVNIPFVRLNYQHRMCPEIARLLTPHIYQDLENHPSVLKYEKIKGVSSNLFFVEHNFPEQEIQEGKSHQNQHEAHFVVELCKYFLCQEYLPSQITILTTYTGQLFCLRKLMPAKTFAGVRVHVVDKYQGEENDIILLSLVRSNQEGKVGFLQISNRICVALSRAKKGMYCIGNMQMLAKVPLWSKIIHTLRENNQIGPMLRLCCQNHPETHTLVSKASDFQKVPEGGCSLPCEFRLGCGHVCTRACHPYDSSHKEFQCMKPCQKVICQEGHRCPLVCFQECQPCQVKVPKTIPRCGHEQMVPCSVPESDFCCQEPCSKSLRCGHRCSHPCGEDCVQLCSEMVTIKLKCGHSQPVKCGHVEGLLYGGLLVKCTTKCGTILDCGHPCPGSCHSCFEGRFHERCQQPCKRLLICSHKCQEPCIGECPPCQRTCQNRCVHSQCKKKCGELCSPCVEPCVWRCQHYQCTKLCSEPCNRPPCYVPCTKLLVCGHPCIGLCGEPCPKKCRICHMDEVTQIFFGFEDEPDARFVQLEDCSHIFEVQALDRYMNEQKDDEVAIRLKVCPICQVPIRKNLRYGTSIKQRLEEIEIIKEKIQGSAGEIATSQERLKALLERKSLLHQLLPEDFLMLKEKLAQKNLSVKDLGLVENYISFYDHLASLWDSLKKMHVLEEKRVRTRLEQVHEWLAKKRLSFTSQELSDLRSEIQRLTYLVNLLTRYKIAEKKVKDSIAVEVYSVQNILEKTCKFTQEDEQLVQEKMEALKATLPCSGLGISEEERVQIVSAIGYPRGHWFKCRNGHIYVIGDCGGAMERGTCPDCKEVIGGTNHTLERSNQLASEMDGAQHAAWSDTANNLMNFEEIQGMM
Chain of UniProt Q16134 (Q16134 whole entry): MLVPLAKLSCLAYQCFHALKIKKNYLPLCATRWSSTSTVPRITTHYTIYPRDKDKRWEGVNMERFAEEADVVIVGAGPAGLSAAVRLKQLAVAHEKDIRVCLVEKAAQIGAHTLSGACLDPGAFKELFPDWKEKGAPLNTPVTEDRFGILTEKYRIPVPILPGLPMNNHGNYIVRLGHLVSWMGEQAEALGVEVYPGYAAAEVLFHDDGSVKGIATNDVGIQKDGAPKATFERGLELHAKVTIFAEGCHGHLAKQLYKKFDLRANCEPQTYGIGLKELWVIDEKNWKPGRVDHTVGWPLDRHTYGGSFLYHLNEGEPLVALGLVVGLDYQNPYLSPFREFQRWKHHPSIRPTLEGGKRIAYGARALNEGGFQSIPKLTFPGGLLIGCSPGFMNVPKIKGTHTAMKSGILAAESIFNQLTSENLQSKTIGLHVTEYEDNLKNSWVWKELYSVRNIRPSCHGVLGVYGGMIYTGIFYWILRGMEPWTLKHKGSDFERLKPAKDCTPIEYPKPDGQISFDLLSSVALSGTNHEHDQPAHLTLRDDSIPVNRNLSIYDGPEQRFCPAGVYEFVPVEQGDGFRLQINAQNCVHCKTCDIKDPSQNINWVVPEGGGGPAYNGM
Chain of UniProt Q9GZP9 (Q9GZP9 whole entry): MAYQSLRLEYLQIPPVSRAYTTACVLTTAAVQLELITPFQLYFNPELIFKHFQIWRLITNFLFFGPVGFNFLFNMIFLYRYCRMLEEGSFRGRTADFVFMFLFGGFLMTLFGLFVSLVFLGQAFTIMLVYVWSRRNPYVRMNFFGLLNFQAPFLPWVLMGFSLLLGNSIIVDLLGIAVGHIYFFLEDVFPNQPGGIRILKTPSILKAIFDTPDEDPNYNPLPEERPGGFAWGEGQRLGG

Row | Target | thermal stability z-score (lipoamide; [1]) | thermal stability z-score (lipoamide; arsenate co-treatment: none) | thermal stability z-score (potassium arsenate)
1 | ETFDH (UniProt Q16134) | 0.283 | 0.37 | -0.886
2 | ENDOD1 (UniProt O94919) | -1.14 | -0.77 | 0.443
3 | MCTS1 (UniProt Q9ULC4) | -0.523 | -0.0571 | -1.02
4 | AKR1B1 (UniProt P15121) | 0.596 | 0.698 | 1.19
5 | PCGF5 (UniProt Q86SE9) | 0.0387 | 0.0817 | -0.181
6 | DERL2 (UniProt Q9GZP9) | -0.00701 | -0.0318 | 0.0606
7 | ITPR2 (UniProt Q14571) | -0.269 | -0.265 | -0.238
8 | UTRN (UniProt P46939) | 0.452 | -0.0132 | -0.495
9 | NEU1 (UniProt Q99519) | -0.363 | -0.25 | 0.921
10 | OXSR1 (UniProt O95747) | 0.903 | 0.68 | -0.408
11 | TM9SF2 (UniProt Q99805) | -0.509 | -0.486 | 1.03
12 | MTG1 (UniProt Q9BT17) | 0.0673 | 0.0916 | 0.195
13 | DLG5 (UniProt Q8TDM6) | 0.227 | -0.0304 | 0.0056
14 | KIF1C (UniProt O43896) | -0.00389 | 0.0165 | -0.086
15 | SERPINH1 (UniProt P50454) | -3.31 | -2.2 | 0.567
16 | HACD2 (UniProt Q6Y1H2) | -0.673 | -0.4 | 0.798
17 | TM9SF3 (UniProt Q9HD45) | -0.451 | -0.0174 | 0.511
18 | STAT3 (UniProt P40763) | 0.0355 | -0.181 | 0.426

Row | Target | thermal stability z-score (lipoamide; [1]) | thermal stability z-score (lipoamide; arsenate co-treatment: none) | thermal stability z-score (potassium arsenate)
19 | SMARCAD1 (UniProt Q9H4L7) | -1.27 | -0.234 | -0.159
20 | REEP4 (UniProt Q9H6H4) | -0.55 | -0.227 | 0.579
21 | ACTR8 (UniProt Q9H981) | -0.154 | -0.0898 | -0.347
22 | RNF31 (UniProt Q96EP0) | -0.101 | 0.0489 | -0.255
23 | U2SURP (UniProt O15042) | 0.962 | 0.428 | 0.507
24 | SRPRB (UniProt Q9Y5M8) | -0.411 | 0.511 | 1.49
25 | PDHA1 (UniProt P08559) | 0.0392 | 0.295 | -2.51
26 | DDX28 (UniProt Q9NUL7) | -0.0583 | 0.0995 | 0.0334
27 | WWTR1 (UniProt Q9GZV5) | -0.0845 | -0.0566 | 0.377
28 | ZNFX1 (UniProt Q9P2E3) | 0.113 | 1.85 | 2.01
29 | RHPN2 (UniProt Q8IUC4) | -0.97 | -1.32 | 0.193
30 | NKIRAS1 (UniProt Q9NYS0) | -0.202 | -0.125 | -0.0379
31 | CFL2 (UniProt Q9Y281) | 0.497 | 0.000804 | -0.466
32 | POR (UniProt P16435) | -0.215 | -0.028 | 1.03
33 | MED23 (UniProt Q9ULK4) | -0.0582 | -0.269 | -0.274
34 | MARK3 (UniProt P27448) | -0.0834 | -0.0843 | -0.0953
35 | TRAPPC4 (UniProt Q9Y296) | -0.271 | 0.0129 | -0.0725
36 | CRAT (UniProt P43155) | 0.0164 | 0.114 | 0.0734

Reference: the supplement of paper PMC12463676, “Small-molecule dissolution of stress granules by redox modulation benefits ALS models” (Nature Chemical Biology, 2025)
